Results as given in US20110020239A1, “METHODS FOR IN VIVO IMAGING OF CELLS” (The Johns Hopkins University, priority 2007, published 2011).

Experiments:
human islets [1] = test: Insulin secretion assay (static incubation, C-peptide ELISA); type: cell-based; design: glucose responsiveness stimulation index: dose or concentration left out as unconfirmed; conditions: for difference in glucose responsiveness stimulation index between PFOB and PFPE: PFOB vs PFPE, p>0.05; for glucose responsiveness stimulation index: increase of insulin secretion
Procedure: A static incubation assay was used to assess the insulin secretion response of labeled human islets. One hundred islets were placed in a culture insert (membrane pore diameter 12 μm; Millicell PCF) in six-well plates. The insulin secretion was measured after 1.5 hrs in a solution of a specific glucose level. […] Aliquots of the medium were stored at −80° C. The C-peptide content of the samples was determined with an enzyme-linked, immunosorbent assay (ultrasensitive human c-peptide ELISA, Alpco Diagnostics); results (in ng/ml) were expressed as the means of three independent experiments. The C-peptide secretion was also assessed at 7 days and at 14 days following islet encapsulation, using 8 mM glucose and 90 min incubation.

human islets [2] = test: Microfluorometric viability assay (Newport Green / propidium iodide) of labeled islets; type: cell-based
Procedure: Fresh human cadaveric islets were provided by the Joslin Diabetes Research Center (Boston, Mass.) under an approved protocol of the National Islet Cell Resource Program. Islets were cultured in RPMI 1640 medium (Gibco), supplemented with 10% fetal calf serum and 1% penicillin/streptomycin/L-glutamine (all reagents from Sigma Co) in a humidified CO2 incubator at 37° C. and a 5% CO2 atmosphere. Islets were cultured in tissue culture plates and culture media was replaced every 3 days. For all Feridex labeled islets, islets were initially labeled with procedure described below and then were cultured in contrast free medium. In the case of PFC labeled islets, the respective PFC was supplemented to each change of culture medium throughout the entire culture period.
Viability of labeled human islets was determined using a microfluorometric assay. Cells were incubated for 30 minutes with […] Newport Green (NG, Sigma, St. Louis, Mo.), which stains viable cell cytoplasm green. Following NG staining, islets were incubated for 10 minutes with 5 mM propidium iodide (PI, Sigma, St. Louis, Mo.), which emits red fluorescence when bound to nucleic acids. NG was excited by using a 500 nm laser line and emitted fluorescence was detected using a 535 nm long-pass filter. PI was excited by using a 514 nm laser line and emitted fluorescence was detected using a 550 nm long-pass filter. NG stained cells (green) were counted as viable, while PI stained cells (red) were counted as dead. In cases of dual staining, the cells were considered dead.

[3] = 19F NMR of PFCs (aqueous solubility); type: physicochemical; conditions: 19F NMR experiments
From the text: In the ^19F NMR spectrum of PFOB, eight resonance peaks are observable, one for each carbon position.

dendritic cells = conditions: Ahrens, Flores et al. 2005; cited from earlier work

Q: With FC(F)(F)C(F)(F)C(F)(F)C(F)(F)C(F)(F)C(F)(F)C(F)(F)C(F)(F)Br [PFOB, perfluorooctylbromide] as the molecule, how does the “difference in glucose responsiveness stimulation index between PFOB and PFPE” value (human islets [1]) read?
A: The value was “no significant statistical difference”.

Q: And the “glucose responsiveness stimulation index” value (human islets [1])?
A: Its value is 2.19.

Q: What about the “glucose responsiveness of labeled vs unlabeled islets” value (human islets [1]; insulin secretion assays) of the same molecule?
A: The value was “no significant difference”.

Q: What about the “islet viability compared to both Feridex labeled and unlabeled islets” value (human islets [2]) of the same molecule?
A: Its value is “significant increase in viability”.

Q: What about the “percentage survival of labeled islets compared to unlabeled control islets” value (human islets [2]; all days / all time points (days 1, 7, 14)) of the same molecule?
A: Its value is “statistically significant increase”.

Q: And the aqueous solubility [3]?
A: The aqueous solubility was “below the limit of detection”.

Q: Which “effect on dendritic cell proliferation, function, or maturation” value (dendritic cells) does the source give for FC1(F)OC(F)(F)C(F)(F)OC(F)(F)C(F)(F)OC(F)(F)C(F)(F)OC(F)(F)C(F)(F)OC1(F)F [PFPE, perfluoro-15-crown-5 ether] here?
A: The value was “no effect”.

Q: What about the “difference in glucose responsiveness stimulation index between PFOB and PFPE” value (human islets [1]) of the same molecule?
A: Its value is “no significant statistical difference”.

Q: What about the “glucose responsiveness stimulation index” value (human islets [1]) of the same molecule?
A: Its value is 2.07.

Q: What about the “percentage survival of labeled islets compared to unlabeled control islets” value (human islets [2]; days 7 and 14, p<0.05) of the same molecule?
A: The value was “significant statistical differences”.
